Data as given in US20260306421A1, “SYSTEMS AND METHODS FOR TRANSDERMAN PATCH DELIVERY” (VITAMAX PATCH WHOLESALER LLC, priority 2022, published 2026).
Converted amounts (≈) assume the structure as drawn. Like-named read-outs stand apart in the source and are kept apart here. Marks after values point to notes of the source that are not given here. One block for each compound: values may come before it.

How the values were obtained:
[1] = Chemical stability of cholecalciferol and cholecalciferol phosphate disodium in donor, extraction and receiver fluids; format: physicochemical; conditions: for remaining at 24 h: 37° C.
Protocol: To assess the chemical stability of the test agents in the liquids in which they were to be dissolved for the skin permeation experiments, 1 mg/mL solutions of cholecalciferol and cholecalciferol phosphate disodium in propylene glycol (PG) were prepared and incubated at 37° C. for 24 h. In addition, 100 μg/mL cholecalciferol in 50:50 PG:ethanol mixture, 100 μg/mL cholecalciferol phosphate disodium in 90:10 methanol:water mixture as well as and in 50% PG 40% Methanol: 10% water pH 3.2 (90:10) were also incubated at 37° C. for 24 hours.

[2] = Solubility of cholecalciferol and cholecalciferol phosphate (disodium, acid); format: physicochemical; conditions: read-out: Solubility
Protocol: Aliquots of cholecalciferol, cholecalciferol phosphate disodium, and cholecalciferol phosphate acid were added to a range of solvents including propylene glycol (PG), distilled water, methanol, ethyl acetate, ethanol, n-hexane, and the visual solubility was determined. A precise assessment of the saturation solubility was for some of the solvent systems was made using high-performance liquid chromatography (HPLC). In the HPLC solubility studies, an excess of each solute was added into 2 mL of each test solvent. The solutions were left stirring overnight at room temperature, (RT), 22° C. The saturation of the solutions was confirmed by the visual appearance of crystals and the drug suspensions were filtered through 0.2 μm cellulose acetate syringe filters, diluted with excess of mobile phase, and the solute concentration of each sample was assessed using HPLC.

[3] = Solubility of iron chloride hexahydrate and iron complexes (visual / assayed); format: physicochemical
Protocol: Due to the high number of test samples (6 complexes plus the starting material, iron chloride hexahydrate) a visual solubility screen was used to screen the solubility in a range of solvents. […] Quantitative determination was performed by either incubating the complex in excess in the solvent using a shaking 37° C. water bath for 48 h or sonicating it for 2 hours at 40° C. or leaving overnight on a 50° C. hot plate. Once incubation period was completed, the exact solubility in a particular solvent was assayed (using the iron assay) after centrifugation (i.e. assay iron content in the supernatant using the Ferrozine® assay).

[4] = Iron complex adhesive compatibility and loading screen; format: physicochemical
Protocol: Pre-formulation studies were performed to determine the compatibility of the iron complexes with a range of transdermal patch adhesives (Table 15).
The compatibility of the complexes with the patch adhesives was assessed by mixing and visually checking the clarity of the mixture.
In the adhesives that were computable with the iron complexes the maximum drug loading of the complexes in the adhesive following solvent evaporation was determined. This was achieved by mixing the drug, adhesive and co-solvents until a clear solution was obtained at different drug:adhesive ratios and placing few drops of the mixture onto the patch backing sheet, leaving it to dry for 3-4 h, and examining the formed film on the surface of the backings for evidence of drug crystals.
Following complete drying of the solvents, the adhesive layer was covered by a release liner, compressed, and then cut using 34 mm circular manual die cutter (FIG. 23).

[5] = Iron complex reservoir solvent solubility screening; format: physicochemical
Source text: Iron complex was again screened with a range of suitable excipients and solvents to formulate a solution of high concentration that could be loaded into the patch reservoir. The solvents screened included ethanol, methanol, PG, PEG400, SDS, Tween 85, Span 20, Kolliphore®, Natrsol M250 and dimethicone (Note: methanol is not suitable for formulation but it was used to increase solubility in the other solvents. It was evaporated prior to formulation testing).

[6] = Franz cell porcine skin permeation and deposition of iron from solutions; format: in vitro ADME
Protocol: The permeation of the iron complexes from the formulations into and across porcine skin mounted on Franz cells with a receiver fluid was tested (FIG. 4). This was based on the principles of the FDA, SUPAC-SS guidelines. The developed colorimetric assay method was used for iron quantification.
On the day of the experiment, the skin was defrosted. For the full thickness studies, the subcutaneous fat removed (2.5 mm thick) and for the dermatomes skin studies the tissued was dermatomed to a 1 mm thickness. The tissue was cut into the appropriate size sections (2.19±0.21 cm^2) and mounted between donor and receiver compartments of Franz diffusion cells with the SC facing the donor compartment. Each cell was sealed using parafilm and 12 mm magnetic stir bars were placed into the receiver compartment. The receiver compartment was filled with the desired receiver solution and the Franz cells were placed in a stirring water bath at 37° C. Cells were allowed to equilibrate for 30 min after which the receiver fluid using was mixed using a syringe and the “zero hour” sample was withdrawn from the arm and compensate with the same volume of fresh pre-warmed solution. Following zero-hour sampling, the donor solution was placed in the donor compartment and covered with parafilm. Samples were withdrawn and compensated with fresh receiver solution at set time intervals for a 24 h duration. The iron in each sample was quantified using the method specified in Section 2.2.2.1. […] There was no matrix interference noted in the assay. […] For iron maltol a 80:20 PG:water receiver was used along with a complementary calibration for iron assay (iron chloride in PG:water). The donor solution for the iron maltol made at pH 1.6 was 200 μL of 100 mg/mL complex in Transcutul®, for iron maltol made at pH 4 the donor solution was 200 μL of 23 mg/mL complex in PG and for iron maltol made at pH 4 the donor solution was 150 μL of 16 mg/mL complex in 7.5:1.5:1:1 water:PG:dimethicone:ethanol.
Once the permeation studies were completed the donor solutions were collected into bottles containing the extraction solution. This was followed by skin surface cleaning using four cotton buds, the first two were wetted by the extraction fluid and the second two were used dry. Then two tape striping procedures were performed using 2 tapes to remove any iron on the skin surface with the tape being added to the donor solution and cotton buds in the donor recover vial. For the full skin thickness skin, the Stratum corneum, the dermal and the epidermal layers were isolated in the same way as the recovery method (Section 2.3.2.1). Extraction fluid (50:50 PBS:ethanol) was then added to the tissues, 4 mL to the Stratum corneum, and 2 mL for each of the epidermis and dermis. For the dermatomed skin the whole skin section was chopped up and placed in a 2 mL extraction fluid (ethanol).
The Stratum corneum samples were placed on vibrating plate for a minimum of 2 h to extract the iron and then vortexed prior assay. The epidermis, dermis or dermatomed samples however were incubated with the extraction fluid for 1 h after which were transferred to Eppendorf tubes, one stainless steel 5 mm bead was added and the samples were loaded into the TissuLyser II (Qiagen, Germany) for 30-15 min at 30 Hz. The samples were then centrifuged (5 min at 13,000 rpm) and supernatant assayed.

[7] = Solubility of zinc chloride and zinc complexes (visual / HPLC); format: physicochemical
Protocol: Accurate measurement of the solubility was then repeated for some of the solvent systems by HPLC. In the HPLC solubility studies, an excess of the test agents was loaded into 2 mL of each test solvent. The solutions were left stirring overnight at 32° C. […] The drug suspensions were then centrifuged, the supernatant diluted, and each sample concentration was measured using HPLC.

[8] = Iron maltol made at pH 7.4, 10 mg complex, 62.5 μL PG, 60 μL ethanol, 125 μL water, 62.5 μL Kolliphore
[9] = Iron maltol made at pH 7.4, 10 mg complex, 125 μL PG, 60 μL ethanol, 62.5 μL water, 62.5 μL Kolliphore
[10] = donor liquid paraffin:ethanol, 24 h

Compound: C=C1CC[C@H](O)C/C1=C/C=C1\CCC[C@]2(C)[C@@H]([C@H](C)CCCC(C)C)CC[C@@H]12 [Cholecalciferol, reference compound]
remaining at 24 h ([1]; PG): 93 ± 13% | chemical stability (in words) ([1]; conclusions): indication of chemical instability | remaining at 24 h ([1]; extraction fluid 50:50 PG:ethanol): 92 ± 8% | Solubility ([2]; organic solvent or mixture, solvent PG): 7800 ± 190 µg/mL (≈ 20.3 mM) | Solubility ([2]; solvent PG + 5% water): 2400 ± 2 µg/mL | Solubility ([2]; solvent PG + 10% water): 1100 ± 5 µg/mL | Solubility ([2]; solvent PG + 20% water): 700 ± 4 µg/mL

Solubility of complex ([3]; PEG400): 15 mg/mL Iron | Solubility, equivalent elemental iron ([3]; PEG400): (1.8 mg/mL | Solubility of complex ([3]; PG): 8.3 mg/mL Iron | Solubility, equivalent elemental iron ([3]; PG): 1 mg/ml mg/mL
Compound: CCc1occc(=O)c1[O-].CCc1occc(=O)c1[O-].CCc1occc(=O)c1[O-].[Fe+3] [Iron ethyl maltol made at pH 4, iron ethyl maltol]

Solubility of complex (visual) ([3]; PEG400): <8 mg/mL Iron | Solubility of complex ([3]; PG): 2.7 mg/mL Iron | Solubility, equivalent elemental iron ([3]; PG): 320 µg/mL | Solubility of complex ([3]; Saline): 360 μg/mL Iron | Solubility, elemental iron ([3]; Saline): (44 μg/mL | Solubility in DURO-TAK 9301 patch ([4]; drug loading 2.5-10%, no permeation enhancer): Precipitated | Solubility in DURO-TAK 9301 patch ([4]; drug loading 4%, 2 mg PEG400): Clear | Solubility in DURO-TAK 9301 patch ([4]; drug loading 4%, 2 mg PG): Clear | Solubility in DURO-TAK 9301 patch ([4]; drug loading 4%, no permeation enhancer): Clear | Solubility in DURO-TAK 9301 patch ([4]; drug loading 5%, 2.5 mg Transcutol): Precipitated | Solubility in DURO-TAK 9301 patch ([4]; drug loading 5%, 2.6 mg PEG400): Precipitated | Solubility in DURO-TAK 9301 patch ([4]; drug loading 5%, 5 mg PEG400): Precipitated | Solubility in DURO-TAK 9301 patch ([4]; drug loading 5%, 5 mg Transcutol): Clear | Solubility in DURO-TAK 9301 patch ([4]; drug loading 6%, 3.3 mg PEG400): Precipitated | Solubility in DURO-TAK 9301 patch ([4]; drug loading 7.5%, 4 mg Transcutol): Precipitated | Solubility in DURO-TAK 9301 patch ([4]; drug loading 7.5-10%, 4-5.5 mg PG): Precipitated | Solubility in DURO-TAK 9301 patch ([4]; drug loading 10-7.5%, 5.5-4 mg PEG400): Precipitated
Compound: CCc1occc(=O)c1[O-].CCc1occc(=O)c1[O-].CCc1occc(=O)c1[O-].[Fe+3] [Iron ethyl maltol made at pH 7.4, iron ethyl maltol]

Solubility of complex (visual) ([3]; Chloroform): ≥20 mg/mL Iron | Solubility of complex (visual) ([3]; Ethanol): ≥6 mg/mL Iron maltol* | Solubility of complex (visual) ([3]; Ethyl acetate): <6 mg/mL Iron maltol* | Solubility of complex (visual) ([3]; Hexane): <6 mg/mL Iron maltol* | Solubility of complex (visual) ([3]; Methanol): ≥18 mg/mL Iron | Solubility of complex (visual) ([3]; Oleic acid): <6 mg/mL Iron maltol* | Solubility of complex (visual) ([3]; Propanol): <6 mg/mL Iron maltol* | Solubility of complex (visual) ([3]; Triaceten): <6 mg/mL Iron maltol* | Observation (solubility, complex) ([5]; Iron maltol made at pH 4, 10 mg complex, 50 μL 2% Nitrosol, 50 μL PG): 22000 µg/mL | Observation ([5]; Iron maltol made at pH 4, 20 mg complex, 0.1 mL Kolliphore, 0.1 mL PEG400): Precipitated | Observation ([5]; Iron maltol made at pH 4, 20 mg complex, 0.1 mL Kolliphore, 0.1 mL PEG400, 10% SDS): Precipitated | Observation ([5]; Iron maltol made at pH 4, 20 mg complex, 0.2 mL Kolliphore): Precipitated | Observation ([5]; Iron maltol made at pH 4, 100 mg complex, 2 mL methanol, 1 mL 80:20 PEG400:PEG1000, precipitate upon methanol evaporation): Precipitate | Observation [5, 8]: Clear | Visual solubility (complex) [5, 8]: (32 mg/mL | Observation ([5]; Iron maltol made at pH 7.4, 10 mg complex, 62.5 μL PG, 62.5 μL water, 125 μL Kolliphore): Precipitated | Observation [5, 9]: Clear | Visual solubility (complex) [5, 9]: (32 mg/mL | Observation ([5]; Iron maltol made at pH 7.4, 20 mg complex, 6 μL Span 20, 0.125 mL ethanol, 0.5 mL PG): Precipitated | Observation ([5]; Iron maltol made at pH 7.4, 30 mg complex, 6 μL Tween 85, 0.125 mL ethanol, 0.5 mL PG): Precipitated | Observation ([5]; Iron maltol made at pH 7.4, 40 mg complex, 12 mg SDS, 0.125 mL ethanol, 0.5 mL PG): Precipitated | compatibility with adhesives [4]: only compatible with DURO-TAK 9301 | (maximum) complex loading achieved in adhesive ([4]; methanol stock solution 10 mg/mL): 4% | complex loading achieved in adhesive patch ([4]; methanol stock solution 18 mg/mL): 8.5%
Compound: Cc1occc(=O)c1[O-].Cc1occc(=O)c1[O-].Cc1occc(=O)c1[O-].[Fe+3] [Iron maltol, iron maltol]

deposition into the skin ([6]; applied to the skin as a PG solution): 8 μg/cm^2 | permeation and deposition in the skin ([6]; solutions, 24 h): permeated and deposited in the skin
Compound: CCC(=O)[O-].CCC(=O)[O-].CCC(=O)[O-].[Fe+3] [Iron propionate made at pH 4, iron propionate]
iron passing through the skin ([6]; applied as solution): neither the patch nor the solution allowed iron to pass through the skin

Compound: [Cl-].[Cl-].[Zn+2] [Zinc Chloride, Zinc chloride, reference compound]
Elemental zinc solubility (visual) ([7]; solvent PEG400, visual solubility (*)): ~2.7* mg/mL | Elemental zinc solubility evaluated by HPLC ([7]; solvent PG): 2700 µg/mL

deposition, all layers combined ([6]; donor Miglyol, 24 h): 3.7 μg/cm^2 | elemental iron permeated the skin ([6]; donor Miglyol, 24 h): 2.5±1.8 μg/cm^2 | deposition, all layers combined [6, 10]: 5.3 μg/cm^2 | elemental iron permeated the skin [6, 10]: 4.4±1.5 μg/cm^2
Compound: iron oleate
